Where only a bound is given, the exact number is not on record here.

This note sets out measurements from ChEMBL document CHEMBL4184247, “Development of a series of novel o-phenylenediamine-based indoleamine 2,3-dioxygenase 1 (IDO1) inhibitors” (Bioorg Med Chem Lett, 2018).

For this assay, the target named is Indoleamine 2,3-dioxygenase 1 (Homo sapiens, UniProt P14902). The experiment in a line: Inhibition of IDO1 in IFN-gamma stimulated human HeLa cells assessed as inhibition of kynurenine production pre-incubated for 1 hr followed by IFN-gamma addition and measured after 18 hrs. The assay is classed as cell-based.
Sequence of Indoleamine 2,3-dioxygenase 1 (P14902 whole entry): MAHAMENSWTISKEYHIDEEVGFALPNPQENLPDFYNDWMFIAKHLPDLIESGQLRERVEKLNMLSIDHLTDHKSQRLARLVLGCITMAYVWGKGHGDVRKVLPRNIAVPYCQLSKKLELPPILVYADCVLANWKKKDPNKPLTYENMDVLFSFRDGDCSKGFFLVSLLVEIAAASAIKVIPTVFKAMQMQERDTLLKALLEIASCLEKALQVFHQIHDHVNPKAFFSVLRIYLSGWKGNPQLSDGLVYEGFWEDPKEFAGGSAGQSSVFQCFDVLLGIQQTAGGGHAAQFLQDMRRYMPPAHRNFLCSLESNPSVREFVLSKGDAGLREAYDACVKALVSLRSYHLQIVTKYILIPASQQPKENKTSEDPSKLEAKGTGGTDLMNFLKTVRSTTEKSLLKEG
Consider `Cc1ccc(NC(=O)Nc2cc(-c3ccccc3-c3nnn[nH]3)ccc2N(CC(C)C)CC(C)C)cc1`, for which the concentration for half-maximal inhibition (IC50) was found to be 4 nM.

`CCN(c1ccc(-c2ccccc2C(=O)O)cc1NC(=O)Nc1ccc(C)cc1)C1CCCC1`: the IC50 came out at 23 nM.

For `Cc1ccc(NC(=O)Nc2cc(-c3ccccc3C(=O)NS(=O)(=O)C(F)(F)F)ccc2N(CC(C)C)CC(C)C)cc1`, the IC50 is over 1000 nM.

Take `CCCCN(CCCC)c1ccc(-c2ccccc2C(=O)O)cc1NC(=O)Nc1ccc(C)cc1`: the IC50 came out at 45 nM.

In the case of `Cc1ccc(NC(=O)Nc2cc(-c3ccccc3C(=O)O)ccc2N(CC(C)C)C(C)C)cc1`, the IC50 is 42 nM.

For `Cc1ccc(N(C)C(=O)Nc2cc(-c3ccccc3-c3nnn[nH]3)ccc2N(CC(C)C)CC(C)C)cc1`, the half-inhibitory concentration (IC50) worked out at 405 nM.

Turning to `Cc1ccc(NC(=O)Nc2cc(-c3ccccc3C(=O)O)ccc2N(C)c2ccccc2C(C)(C)C)cc1`, the IC50 is over 1000 nM.

With `Cc1ccc(NC(=O)Nc2cc(-c3ccccc3C(=O)O)ccc2N(CC(C)C)CC(C)C)cc1`, the IC50 amounted to 13 nM.

As for `Cc1ccc(NC(=O)Nc2cc(-c3ccccc3NS(=O)(=O)C(F)(F)F)ccc2N(CC(C)C)CC(C)C)cc1`, the IC50 was found to be 76 nM.

`Cc1ccc(NC(=O)Nc2cc(-c3ccccc3C(=O)O)ccc2N(C)C2CCCCC2)cc1`: the half-inhibitory concentration (IC50) was 14 nM.

In the case of `Cc1ccc(NC(=O)Nc2cc(-c3ccc(C(=O)O)cc3)ccc2Oc2ccccc2C(C)(C)C)cc1`, the IC50 was over 1000 nM.

For the compound `COCCN(CCOC)c1ccc(-c2ccccc2C(=O)O)cc1NC(=O)Nc1ccc(C)cc1`, the half-maximal inhibitory concentration (IC50) is over 1000 nM.

On to `Cc1ccc(N2CCN(c3cc(-c4ccccc4-c4nnn[nH]4)ccc3N(CC(C)C)CC(C)C)C2=O)cc1`, for which the IC50 was found to be 28 nM.

For `Cc1ccc(NC(=O)N(C)c2cc(-c3ccccc3-c3nnn[nH]3)ccc2N(CC(C)C)CC(C)C)cc1`, the IC50 amounted to 97 nM.

Consider `Cc1ccc(NC(=O)Nc2cc(-c3cccc(C(=O)O)c3)ccc2Oc2ccccc2C(C)(C)C)cc1`, for which the IC50 was over 1000 nM.

For the compound `Cc1ccc(NC(=O)Nc2cc(-c3ccccc3NS(C)(=O)=O)ccc2N(CC(C)C)CC(C)C)cc1`, the IC50 is over 1000 nM.
